Measurements: ChEMBL document CHEMBL1127108, “Synthesis of ecdysteroid inhibitors of ecdysone biosynthesis. Inhibition of the C-25 hydroxylation” (1993)

Assays:
Locusta migratoria [1] = assay: In vitro inhibitory activity of compound on ecdysone biosynthesis in larval prothoracic glands of Locusta migratoria at 10e-5 M concentration; assay type: functional
Locusta migratoria [2] = assay: In vitro inhibitory activity of compound on ecdysone biosynthesis in larval prothoracic glands of Locusta migratoria; NI: No inhibition was observed; assay type: functional

Row | Compound | inhibition at 10 µM (Locusta migratoria [1]) | inhibition (Locusta migratoria [2])
1 | C#C[C@H](O)C(C)C1CCC2C3CC=C4C[C@@H](O)CC[C@]4(C)C3CC[C@@]21C (stereo not given in full) | 36% | –
2 | C#CC[C@@H](O)C(C)C1CCC2C3CC=C4C[C@@H](O)CC[C@]4(C)C3CC[C@@]21C (stereo not given in full) | 66% | –
3 | C#CC[C@H](O)C(C)C1CC[C@H]2[C@@H]3CC=C4C[C@@H](O)CC[C@]4(C)[C@H]3CC[C@]12C (stereo not given in full) | 37% | –
4 | CC(C1CCC2C3CC=C4C[C@@H](O)CC[C@]4(C)C3CC[C@@]21C)[C@@H](O)C#C[Si](C)(C)C (stereo not given in full) | – | No inhibition
5 | C#CC[C@@H](O)C(C)C1CC[C@H]2[C@@H]3CC=C4C[C@@H](O)CC[C@]4(C)[C@H]3CC[C@]12C (stereo not given in full) | 36% | –
